Assay results reported in ChEMBL document CHEMBL1201862, “PubChem BioAssay data set” (2004).
Blank lines part the entries; values can stand above or below the compound they belong to. The source made the active and inactive calls.

Legend:
[1] = target: T1, Heat shock factor protein 1 (Mus musculus, UniProt P38532); assay: inhibition of MG132-induced HSE-luciferase signal, confirmation, cell-based, NIH3T3, luminescence, dose retest (AID 2382); assay type: functional;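 further: NIH3T3 fibroblasts with HSF1-driven luciferase reporter stressed by proteasome inhibitor MG132; luminescence from HSF1-driven luciferase expression after 8 hours of MG132 stress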
T1 sequence (P38532 whole entry): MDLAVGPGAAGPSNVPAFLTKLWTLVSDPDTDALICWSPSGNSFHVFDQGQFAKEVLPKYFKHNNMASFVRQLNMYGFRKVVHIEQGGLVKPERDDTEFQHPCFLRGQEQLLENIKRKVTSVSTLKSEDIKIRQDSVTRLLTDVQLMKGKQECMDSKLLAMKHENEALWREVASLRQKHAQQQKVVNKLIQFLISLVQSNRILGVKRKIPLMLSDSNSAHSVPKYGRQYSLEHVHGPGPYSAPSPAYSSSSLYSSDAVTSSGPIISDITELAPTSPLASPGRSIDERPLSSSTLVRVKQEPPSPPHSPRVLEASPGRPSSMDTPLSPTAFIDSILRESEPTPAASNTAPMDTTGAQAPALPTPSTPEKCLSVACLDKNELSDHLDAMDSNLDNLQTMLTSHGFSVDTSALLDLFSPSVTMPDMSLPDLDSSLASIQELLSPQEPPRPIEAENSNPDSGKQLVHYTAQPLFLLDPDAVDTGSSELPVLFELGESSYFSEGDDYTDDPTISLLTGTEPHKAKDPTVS

[2] = target: T2, Corticotropin-releasing factor receptor 2/Corticotropin-releasing factor-binding protein (Homo sapiens, UniProt P24387+Q13324); assay: Dose Response confirmation of uHTS hits for small molecule antagonists of the CRF-binding protein and CRF-R2 receptor complex.; assay type: functional; details: read-out: IC50_Mean
T2 sequence (Q13324 whole entry): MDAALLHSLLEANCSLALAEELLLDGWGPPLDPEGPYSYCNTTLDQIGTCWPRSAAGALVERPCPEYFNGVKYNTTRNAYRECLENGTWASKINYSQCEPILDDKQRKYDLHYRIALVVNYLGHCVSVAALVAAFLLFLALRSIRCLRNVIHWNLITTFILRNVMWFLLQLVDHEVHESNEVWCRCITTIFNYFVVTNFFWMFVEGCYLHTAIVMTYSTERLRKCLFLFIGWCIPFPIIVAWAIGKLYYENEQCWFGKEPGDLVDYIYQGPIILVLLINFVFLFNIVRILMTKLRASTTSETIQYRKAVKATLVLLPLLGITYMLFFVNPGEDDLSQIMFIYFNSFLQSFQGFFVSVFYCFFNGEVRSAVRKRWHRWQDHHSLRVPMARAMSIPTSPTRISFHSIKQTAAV
T2 sequence (P24387 whole entry): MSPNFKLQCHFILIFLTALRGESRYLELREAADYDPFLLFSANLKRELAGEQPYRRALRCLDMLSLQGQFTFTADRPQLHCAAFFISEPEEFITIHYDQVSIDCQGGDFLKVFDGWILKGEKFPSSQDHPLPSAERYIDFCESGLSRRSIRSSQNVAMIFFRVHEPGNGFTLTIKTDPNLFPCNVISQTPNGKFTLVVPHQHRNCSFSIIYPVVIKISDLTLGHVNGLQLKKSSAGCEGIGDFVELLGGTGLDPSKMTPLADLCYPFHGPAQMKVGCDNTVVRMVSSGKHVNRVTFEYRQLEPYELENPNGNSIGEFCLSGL

[3] = target: T2, Corticotropin-releasing factor receptor 2/Corticotropin-releasing factor-binding protein; assay: activators of CRF receptor 2 with binding protein – uHTS hits, confirmation (AID 602473); assay type: functional; details: read-out: EC50_Mean
[4] = target: T1, Heat shock factor protein 1; assay: HSF1 potentiators in luciferase reporter cells, confirmation, cell-based, NIH3T3, luminescence, dose retest (AID 435004); assay type: functional;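 further: stress induced by proteasome inhibitor MG132 added 30 min after compound; luciferase reporter driven by HSF1 response element in NIH3T3 cells; actives raise luminescence as potentiators of the MG132 stress response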
[5] = target: T3, Rac GTPase-activating protein 1 (Homo sapiens, UniProt Q9H0H5); assay: MgcRacGAP GTPase-activating activity inhibitors, confirmation, biochemical, ADP Hunter fluorescence, primary and confirmatory (AID 624330); assay type: functional
T3 sequence (Q9H0H5 whole entry): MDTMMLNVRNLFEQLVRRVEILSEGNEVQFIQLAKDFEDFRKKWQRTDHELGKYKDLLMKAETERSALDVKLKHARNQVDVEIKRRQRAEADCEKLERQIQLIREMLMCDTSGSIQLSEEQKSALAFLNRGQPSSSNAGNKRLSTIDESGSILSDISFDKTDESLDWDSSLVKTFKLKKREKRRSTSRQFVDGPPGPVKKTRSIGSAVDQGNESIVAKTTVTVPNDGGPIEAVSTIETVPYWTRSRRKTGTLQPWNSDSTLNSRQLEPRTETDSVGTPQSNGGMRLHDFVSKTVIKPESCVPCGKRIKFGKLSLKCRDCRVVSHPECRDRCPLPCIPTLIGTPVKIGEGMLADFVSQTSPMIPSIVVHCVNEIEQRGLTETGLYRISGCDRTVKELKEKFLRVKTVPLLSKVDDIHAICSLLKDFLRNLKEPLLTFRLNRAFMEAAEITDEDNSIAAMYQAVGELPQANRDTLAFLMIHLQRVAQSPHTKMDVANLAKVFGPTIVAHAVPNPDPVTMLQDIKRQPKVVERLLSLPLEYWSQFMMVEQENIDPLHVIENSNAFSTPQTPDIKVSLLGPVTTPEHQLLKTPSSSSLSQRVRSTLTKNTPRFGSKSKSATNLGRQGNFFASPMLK

Cytochrome P450 2C9 = Cytochrome P450 2C9 (Homo sapiens, UniProt P11712)
Cytochrome P450 3A4 = Cytochrome P450 3A4 (Homo sapiens, UniProt P08684);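 further: CYP3A4 tested as one member of a cytochrome P450 panel screen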
[6] = Luminescence Cell-Based Dose Response HTS to Identify Activators of Luciferase Translation or Activity in H4 […] Cells. [Related pubchem assays: 1829 (Project Summary), 1814 (Primary HTS)]; assay type: functional

Sequence of Cytochrome P450 3A4 (P08684 whole entry): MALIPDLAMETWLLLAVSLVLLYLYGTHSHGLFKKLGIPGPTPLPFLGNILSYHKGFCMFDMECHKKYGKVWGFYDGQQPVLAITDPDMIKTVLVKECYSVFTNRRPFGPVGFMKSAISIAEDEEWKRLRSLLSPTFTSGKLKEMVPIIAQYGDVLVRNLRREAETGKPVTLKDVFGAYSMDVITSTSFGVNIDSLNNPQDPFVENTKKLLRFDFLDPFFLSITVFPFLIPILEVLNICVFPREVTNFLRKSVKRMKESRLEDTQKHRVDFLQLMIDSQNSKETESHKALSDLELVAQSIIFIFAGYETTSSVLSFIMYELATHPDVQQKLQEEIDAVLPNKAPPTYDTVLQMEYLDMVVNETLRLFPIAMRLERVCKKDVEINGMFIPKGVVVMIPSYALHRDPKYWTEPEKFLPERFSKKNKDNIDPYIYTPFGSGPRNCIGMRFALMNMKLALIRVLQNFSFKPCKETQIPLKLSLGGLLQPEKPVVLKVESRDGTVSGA
Sequence of Cytochrome P450 2C9 (P11712 whole entry): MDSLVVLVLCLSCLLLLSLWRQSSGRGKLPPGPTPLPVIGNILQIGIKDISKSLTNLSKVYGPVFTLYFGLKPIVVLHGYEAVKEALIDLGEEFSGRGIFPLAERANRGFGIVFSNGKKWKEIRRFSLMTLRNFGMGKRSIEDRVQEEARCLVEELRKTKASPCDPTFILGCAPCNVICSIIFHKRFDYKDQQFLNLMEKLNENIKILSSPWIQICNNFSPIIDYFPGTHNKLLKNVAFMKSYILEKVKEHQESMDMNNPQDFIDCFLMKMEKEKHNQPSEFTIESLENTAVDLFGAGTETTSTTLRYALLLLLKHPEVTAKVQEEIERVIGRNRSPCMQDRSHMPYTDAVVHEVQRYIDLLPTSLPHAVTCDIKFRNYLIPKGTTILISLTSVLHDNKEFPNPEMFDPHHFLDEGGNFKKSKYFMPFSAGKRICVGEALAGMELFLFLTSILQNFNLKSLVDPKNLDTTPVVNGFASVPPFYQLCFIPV

SMILES: CCOC(=O)C1CCCN(CC(=O)Nc2c(C(=O)OC)[nH]c3ccccc23)C1 (stereo unspecified)
EC50 [4]: > 260 µM (inactive)

SMILES: CC1Cc2ccccc2N1CC(=O)NC(=O)NCc1ccccc1 (stereo unspecified)
EC50 [1]: > 195 µM (not active)

SMILES: O=C(CN1CCN(C2CCCCC2)CC1)Nc1ccccc1-c1ccccc1
IC50 [5]: 78.1 µM (active)

SMILES: OC(CNCc1ccc(F)cc1)(c1ccc(F)cc1)c1ccc(F)cc1
EC50 [4]: > 260 µM (inactive) | AC50 (Cytochrome P450 2C9): 12.6 µM (inconclusive)

SMILES: CCCn1c(C)nc2c(c1=O)c1nc3ccccc3nc1n2CCC1=CCCCC1
EC50 [4]: > 260 µM (inactive) | AC50 (Cytochrome P450 3A4): 3.16 µM (inconclusive)

SMILES: CCN1CCN(CCOc2ccccc2OCc2ccccc2)CC1
IC50 [5]: 94.5 µM (active)

SMILES: CCOC(=O)c1c(S(=O)(=O)N2CCCCC2C)c(C)n(C)c1C (stereo unspecified)
EC50 [1]: > 195 µM (not active)

SMILES: COc1ccc(Br)cc1CN1CCC(N2CCCC2)CC1
IC50 [5]: 59.6 µM (active)

SMILES: Cc1cc(O)nc(SCc2nc3ccccc3c(=O)n2-c2ccccc2C)n1
EC50 [4]: > 260 µM (inactive)

SMILES: COc1cccc(C(=O)Nc2cc(C(=O)NCc3ccc(C)cc3)ccc2N2CCC3(CC2)CC(c2cccc(Br)c2)=NO3)c1
IC50 [2]: < 0.368 µM (active) | EC50 [3]: > 53 µM (inactive)

SMILES: O=C(COc1ccc(Cl)cc1)N1CCCC1
EC50 [1]: > 195 µM (not active)

SMILES: O=C(CSc1nnnn1CCCO)Nc1ccc2c(c1)OCO2
EC50 [1]: > 195 µM (not active)

SMILES: Brc1ccc(-c2noc(CCc3ccccc3)n2)o1
IC50 [2]: > 47.1 µM (inactive) | EC50 [3]: > 53 µM (inactive)

SMILES: CCOC(=O)c1c(CN2CCC(C)CC2)n(C)c2cc(Br)c(OC)cc12
EC50 [4]: > 260 µM (inactive)

SMILES: Cc1ccccc1-n1c(C)nnc1SCc1nc2ccccc2s1
EC50 [6]: 33.1 µM (active)

SMILES: Cc1ccc(C(C)C)c(OCCCCN2CCNCC2)c1
IC50 [5]: 87.9 µM (active)

SMILES: C=CCNC(=O)c1c(C(F)(F)F)nn(C)c1Cl
EC50 [1]: > 195 µM (not active)

SMILES: NC(=NOC(=O)COc1ccc(Br)cc1)c1ccncc1
IC50 [2]: > 47.1 µM (inactive) | EC50 [3]: > 53 µM (inactive)

SMILES: CN(C)/C=C/C(=O)c1ccc(S(=O)(=O)c2ccccc2)cc1
EC50 [1]: > 195 µM (not active)

SMILES: O=C(NCCN1CCCCC1)Nc1ccccc1Cl
EC50 [1]: > 195 µM (not active)

SMILES: CCC(C)N(C(=O)C(F)(F)F)C(C(=O)NC1CCCCC1)c1ccncc1 (stereo unspecified)
EC50 [1]: > 195 µM (not active)

SMILES: CCN(CC)CCCN1C(=O)c2oc3ccccc3c(=O)c2C1c1cccc(OC)c1OC (stereo unspecified)
EC50 [4]: > 260 µM (inactive)

SMILES: Cc1nn(C(=O)c2c(-c3ccccc3)noc2C)c(C)c1N=Nc1cc(C(F)(F)F)cc(C(F)(F)F)c1
IC50 [2]: > 47.1 µM (inactive) | EC50 [3]: > 53 µM (inactive)

SMILES: O=C(Nc1ccccn1)C1CCN(S(=O)(=O)c2ccc3ccccc3c2)CC1
IC50 [2]: > 47.1 µM (inactive) | EC50 [3]: > 53 µM (inactive)

SMILES: CCOc1ccccc1N1CCN(C(=O)C2CSC3(C)CCC(=O)N23)CC1 (stereo unspecified)
IC50 [2]: > 47.1 µM (inactive) | EC50 [3]: > 53 µM (inactive)

Continued, values first:

EC50 [1]: > 195 µM (not active)
SMILES: CC(C)(C)c1ccc(/C=C(\C#N)C(=O)Nc2ccccn2)cc1

IC50 [2]: > 47.1 µM (inactive) | EC50 [3]: > 53 µM (inactive)
SMILES: COc1ccc(-c2noc(C(=O)NCc3ccc(F)cc3)n2)cc1OC

EC50 [1]: > 195 µM (not active)
SMILES: Cc1ccc2[nH]c3c(c2c1)CCN(C)C3

IC50 [2]: > 47.1 µM (inactive) | EC50 [3]: > 53 µM (inactive)
SMILES: CCOC(=O)c1cn2nc(Oc3cccc(F)c3)ccc2n1

EC50 [4]: > 260 µM (inactive)
SMILES: Cc1ccc(/C=C2\Oc3cc(OC(=O)N4CCOCC4)ccc3C2=O)cc1

IC50 [5]: 47.7 µM (active)
SMILES: COc1cc(/C=C/C(=O)OCC(=O)N2CCC(Cc3ccccc3)CC2)ccc1O

IC50 [2]: > 47.1 µM (inactive) | EC50 [3]: > 53 µM (inactive)
SMILES: COc1ccc(OC2C(=O)N(c3cc(C)ccc3C)C2c2ccc(OC)c(OC)c2)cc1 (stereo unspecified)

IC50 [2]: > 47.1 µM (inactive) | EC50 [3]: > 53 µM (inactive)
SMILES: CCOc1ccc(OCCSc2nc(N)cc(=O)[nH]2)cc1

EC50 [1]: > 195 µM (not active)
SMILES: CCC(C)[C@H](NC(=O)NCc1cccc(OC)c1)C(=O)O (stereo partly specified)

EC50 [1]: 14.8 µM (active)
SMILES: COc1ccc(C)cc1NC(=O)C(=O)NNC(=O)COc1ccc(Cl)cc1

IC50 [2]: > 47.1 µM (inactive) | EC50 [3]: > 53 µM (inactive)
SMILES: COc1ccc(OC)c(CN2CCN(S(=O)(=O)c3ccc(NC(C)=O)cc3)CC2)c1

EC50 [1]: > 195 µM (not active)
SMILES: COc1ccc2nnc(-c3ccc(C(F)(F)F)cc3)n2n1

IC50 [2]: > 47.1 µM (inactive) | EC50 [3]: > 53 µM (inactive)
SMILES: Cc1ccc(S(=O)(=O)N2CCN(C(=O)COc3ccc(C)nc3[N+](=O)[O-])CC2)c(C)c1

IC50 [2]: > 47.1 µM (inactive) | EC50 [3]: > 53 µM (inactive)
SMILES: CCC(C(=O)NCCN1CCOCC1)n1c2ccccc2c2nc(=O)cc(C)n21 (stereo unspecified)

EC50 [1]: > 195 µM (not active)
SMILES: CCCC[C@@H]1C[C@H]1[C@@H](NC(=O)c1ccco1)c1ccc(Cl)cc1

EC50 [1]: > 195 µM (not active)
SMILES: CCC(=O)N1CCc2cc(S(=O)(=O)NCCC(=O)Nc3ccccc3C)ccc21

EC50 [4]: > 260 µM (inactive)
SMILES: COc1ccc(C(=O)/C=C2/C(=O)Nc3ccccc32)cc1OC

IC50 [2]: > 47.1 µM (inactive) | EC50 [3]: > 53 µM (inactive)
SMILES: O=C(CCCc1cccs1)Nc1ccc2c(c1)OCO2

EC50 [1]: > 195 µM (not active)
SMILES: CC(=O)Nc1c(C(=O)Nc2ccc3c(c2)OCO3)oc2ccccc12

IC50 [5]: 96.8 µM (active)
SMILES: COc1ccc(C)cc1NC(=O)C(NCC(O)c1ccccc1)c1ccccc1 (stereo unspecified)

EC50 [4]: > 260 µM (inactive)
SMILES: Cc1onc(-c2ccccc2)c1C(=O)OCc1nnc(-c2ccccc2)o1

EC50 [4]: > 260 µM (inactive)
SMILES: COC(=O)CNC(c1ccccc1)c1cc(Br)ccc1N (stereo unspecified)

IC50 [2]: > 47.1 µM (inactive) | EC50 [3]: > 53 µM (inactive)
SMILES: Cc1c(C(=O)N2CC(C(=O)N3CCCCC3)Oc3ccccc32)oc2ccccc12 (stereo unspecified)

EC50 [4]: > 260 µM (inactive)
SMILES: O=C(N/N=C/CCc1ccccc1)c1ccccc1

EC50 [4]: 85.4 µM (active)
SMILES: Cc1[nH]n(-c2ccccc2)c(=O)c1/C=N/CCc1ccccc1

IC50 [5]: 54.6 µM (active)
SMILES: COc1cc(/C=N\NC(=O)CNC(=O)C(c2ccccc2)c2ccccc2)ccc1O

IC50 [5]: 79.4 µM (active)
SMILES: COc1cc(/C=N/NC(=O)/C(=C\c2ccc3c(c2)OCO3)NC(=O)c2ccccc2)ccc1O

IC50 [5]: 27.3 µM (active)
SMILES: COc1cc(/C=N/NC(=O)c2ccoc2C)ccc1O

IC50 [5]: 171 µM (active)
SMILES: COc1cc([C@H]2OC[C@H]3[C@@H]2CO[C@H]3c2ccc(O)c(OC)c2)ccc1O [PINORESINOL]
